“Also recorded” adds a separate entry of the source. No end group written: not given here. *: point of attachment. 11‑(ethylthio)undecanoyl = CCSCCCCCCCCCCC(=O)*; 125I = [125I]*
What was measured:
[1] = C18 reverse phase HPLC elution of fatty acyl peptides (hydrophobicity); type: physicochemical; conditions: for elution earlier than corresponding myristoyl-peptide: C-18 reverse phase HPLC, FIG. 2; for Elution Time: C18 reverse phase HPLC, acyl derivative of GNAAS[125I]YRR, Table 2
Protocol: The fatty acid analog acyl-peptide eluted 7 minutes earlier than the corresponding myristoyl peptide. The free peptide elutes in the void volume (3-5minutes).
This difference was evident when the HPLC elution characteristics of fatty acyl peptides were examined. The elution time of a particular acyl-peptide depends strongly on the peptide sequence as well as on the acyl chain attached to that peptide. For example, the elution times of fatty acyl derivatives of GNAAAARR are (in minutes) decanoic acid, 9; dodecanoic acid, 18; myristic acid, 24; and palmitic acid, 30. Elution times for fatty acyl derivatives of GNAAS[^125 I]YRR are 23 and 28 minutes for C12 and C14 fatty acids, respectively (FIG. 2). […] Such a change could alter the biological activity of myristoyl proteins.
(§1) For these Examples, each analog synthesized is characterized by ^1 H and ^13 C NMR as well as mass spectroscopy. The analogs are then characterized kinetically as NMT substrates. Briefly, fatty acid analogs are converted to their CoA esters with Pseudomonas CoA ligase and incubated with the iodinated peptide GNAAS[^125 I]YRR and a source of NMT. […] The radiolabelled peptide is then used at concentrations which will lead to 50% enzyme saturation (i.e., at its Km) for the determination of fatty acid analog kinetic characteristics. Representative analogs with sulfur or oxygen in the backbone of the fatty acid chain serve as good substrates for NMT in vitro and will compete for incorporation of ^3 H labelled myri-state into yeast proteins in vivo. In addition, these analogs differ markedly in hydrophobicity from myri-state as measured both by C18 reverse phase HPLC elution profiles and by 2-octanol/water partition coefficients. The analog CH3 O(CH2)11 COOH, for example, partitions into water 20 fold better than myristate. It is believed that these analogs will be incorporated into mammalian acylproteins in vivo and that their incorporation into these proteins will drastically alter protein processing or targeting. It is further believed that the incorporation of fatty acid analogs of both myristate and palmitate into ester linked and phosphatidyl inositol glycan linked acylproteins will also dramatically alter their properties. Since many viral proteins and oncogenes are acylated, these compounds represent a new class of potential antiviral and antineoplastic agents.

[2] = tested on: wheat germ NMT; test: in vitro myristoylation assay with partially purified wheat germ NMT; type: biochemical
Protocol: Myristoyl CoA and fatty acid analog CoA were generated by incubation of the fatty acid or analog with CoA, ATP and CoA ligase. This reaction mixture was added to wheat germ NMT and Gly-Asn-Ala-Ala-Ser- [^125 I]Tyr-Arg-Arg in the presence of 0.03% Triton® X-100. Reaction products were characterized by reverse phase HPLC and gamma counting.
The invention is illustrated in greater detail in the following Examples 1 to 15 by the synthesis and testing of representative compounds of the invention as myristoylating enzyme substrates. Accordingly, the invention is first illustrated in Examples 1 to 5 by the chemical synthesis of a sulfur-containing analog of myristic acid, namely 11-(ethylthio)undecanoicacid, CH3 CH2 --S--(CH2)10 COOH, which is then tested in vitro as a wheat germ NMT substrate. Wheat germ NMT is a protein similar to yeast NMT. The purity and chemical identity of the synthesized compound were examined using ^1 H and ^13 C NMR as well as mass spectroscopy. The assay that was used to characterize the substrate specificity of wheat germ NMT measures the rate of attachment of a radiolabelled fatty acid to an unlabelled peptide. The fatty acid analog synthesized was nonradioactive.
Characterization of Partially Purified Wheat Germ NMT--Assays for NMT activity were performed using a procedure detailed previously by Towler and Glaser, Proc. Natl. Acad. Sci. USA 83, 2812-2816 (1986). Briefly, the in vitro assay measures the transfer of radiolabelled fatty acid from acyl CoA to a synthetic peptide substrate. The acylpeptide product is identified by reverse phase HPLC. Time and enzyme dependence were evaluated by varying the reaction time or the enzyme concentration. […] Fatty acid specificity was examined essentially as described by Towler et al., J. Biol. Chem. 262, 1030-1036 (1987), except that the peptide Gly-Ser-Ser-Lys-Ser-Lys-Pro-Lys rather than Gly-Asn-Ala-Ala-Ala-Ala-Arg-Arg was used to compare palmitate and myristate utilization by wheat germ NMT. This was necessary because of the presence of a large, peptide-independent peak which co-eluted with a palmitoyl-Gly-Asn-Ala-Ala-Ala-Ala-Arg-Arg standard. [^3 H]Palmitate and [^3 H]myristate were used in this comparison. [^14 C]fatty acids were used to compare C-10, C-12 and C-14 chain lengths. Fatty acyl CoA concentrations in these assays were determined by a modification of the method of Hosaka et al., Methods Enzymol. 71, 325-333 (1981).
Characterization of the Fatty Acid Analog--Gly-Asn-Ala-Ala-Ser-[^125 I]Tyr-Arg-Arg as prepared in Example 2, above, was tested in an in vitro myristoylation system which was modified from that used with radiolabelled fatty acids. […] 20-fold more wheat germ NMT (480-fold purified as in Example 3, above) was used for these assays than for assays which employed [^3 H] myristate. […] Double reciprocal plots were generated for the iodinated peptide with both myristic acid and the sulfur analog by altering the peptide concentration in the presence of a constant amount of fatty acid or analog. […] The assays contained 0.03% Triton X-100 to maintain the solubility of the fatty acids.

[3] = biological target: T1, yeast NMT (Saccharomyces cerevisiae, UniProt P14743); test: kinetic characterisation of fatty acid analogs as yeast NMT substrates; type: biochemical; conditions: for Peptide Vm: peptide GNAAS[125I]YRR varied, fatty acid analog at 15 μM; for Peptide Vm / Acyl CoA Vm: myristate control = 100%; for Acyl CoA Vm / Km: radiolabelled peptide at its Km, analog varied; for Km: read-out: Acyl CoA Km
T1 construct: 11,000-fold purified preparation of yeast NMT; endogenous in cells; host or cells: yeast (enzyme purified from yeast, 11,000-fold)
T1 sequence (P14743 1-455): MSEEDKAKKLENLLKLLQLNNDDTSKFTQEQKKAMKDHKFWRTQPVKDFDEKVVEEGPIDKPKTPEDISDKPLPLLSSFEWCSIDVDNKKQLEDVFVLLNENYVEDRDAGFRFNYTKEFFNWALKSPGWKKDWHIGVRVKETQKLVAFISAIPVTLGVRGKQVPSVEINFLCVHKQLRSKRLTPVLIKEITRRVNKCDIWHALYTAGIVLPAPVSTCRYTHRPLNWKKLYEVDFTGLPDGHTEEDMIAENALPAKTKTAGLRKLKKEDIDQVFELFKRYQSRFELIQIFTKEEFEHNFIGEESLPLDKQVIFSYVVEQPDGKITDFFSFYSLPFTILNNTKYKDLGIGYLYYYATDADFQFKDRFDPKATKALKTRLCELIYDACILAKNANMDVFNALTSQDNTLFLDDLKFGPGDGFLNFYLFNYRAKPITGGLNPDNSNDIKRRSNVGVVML
Description: Similar results were obtained using an 11,000-fold purified preparation of yeast NMT [Towler et al., Proc. Natl. Acad. Sci. USA 84, 2708-2712 (1987)].
Other illustrative examples of the oxy- and thio-substituted fatty acid analog substrate compounds of the invention were synthesized in Examples 6 to 14 and tested in Example 15 as substrates for the yeast NMT.
as §1

[4] = CoA ester, 40 μM iodinated peptide, 0.03% Triton X-100, FIG. 1

| Compound | Peptide Vm [3] [%] | Acyl CoA Vm [3] [%] | Km [3] [µM] | Elution Time [1] [min] | also measured |
| --- | --- | --- | --- | --- | --- |
| 11-(ethylthio)undecanoyl-GNAAS[^125 I]YRR ({11‑(ethylthio)undecanoyl}-GNAASY(125I)RR) [fatty acid analog acyl-peptide formed by NMT from compound A and iodinated peptide GNAASYRR] | – | – | – | – | elution earlier than corresponding myristoyl-peptide [1]: seven; elution earlier than corresponding myristoyl-peptide ([1]; listed as 11-(ethylthio)undecanoyl-GNAASYRR[^125 I]): 7 min |
| CCCCCCCCSCCCCC(=O)O [C, 5-(Octylthio)pentanoic acid] | 213 | 160 | 1.5 | 24 | – |
| CCCCOCCCCCCCCCCC(=O)O [Compound I, 11-(1-Butoxy)undecanoic acid] | 25 | 80 | 1 | 19 | effectiveness as NMT substrate, in words [3]: less effective |
| CCCCCCCCOCCCCC(=O)O [F, 5-(octyloxy)pentanoic acid] | 335 | 675 | 1.6 | 16 | – |
| CCCOCCCCCCCCCC(=O)O [H, 10-(Propoxy)decanoic acid] | 150 | 250 | 6.1 | 11 to 12 | – |
| CCCCCCCCCC(=O)O [decanoic acid, reference compound] | – | – | – | – | elution time of fatty acyl derivative of GNAAAARR ([1]; reverse phase HPLC): 9 min |
| CCCCCCCCCCCC(=O)O [dodecanoic acid, reference compound] | – | – | – | – | elution time of fatty acyl derivative of GNAAAARR ([1]; reverse phase HPLC): 18 min; elution time of fatty acyl derivative of GNAAS[125I]YRR ([1]; reverse phase HPLC, FIG. 2, text): 23 min |
| CCCCCCCCCCCCCCCC(=O)O [palmitic acid, reference compound] | – | – | – | – | elution time of fatty acyl derivative of GNAAAARR ([1]; reverse phase HPLC): 30 min |

More lines, main results first:

| Peptide Vm [3] [%] | Acyl CoA Vm [3] [%] | Km [3] [µM] | Elution Time [1] [min] | Compound | also measured |
| --- | --- | --- | --- | --- | --- |
| 98 | 130 | 1.4 | 18 | CCSCCCCCCCCCCC(=O)O [A, 11-(Ethylthio)undecanoic acid] | Km for the analog relative to myristate [2, 4]: 1.5 times higher; Vmax for the analog relative to myristate [2, 4]: 3.5 times higher; Km ([2]; fatty acid or analog at 5 μM, peptide varied, read-out: Km of peptide substrate Gly-Asn-Ala-Ala-Ser-[125I]Tyr-Arg-Arg): 7 µM; ability to act as a substrate for myristoyl CoA: protein N-myristoyl transferase (NMT) ([2]; in words): leaves intact; substrate quality of CoA ester for wheat germ NMT compared with myristoyl CoA ([2]; in words): at least as good a substrate; apparent maximal velocity relative to myristic acid ([2]; peptide varied, fatty acid or analog at 5 μM): 2.3 times higher; Km compared with C14:0 fatty acid ([3]; 11,000-fold purified yeast NMT): indistinguishable; Vmax compared with C14:0 fatty acid ([3]; 11,000-fold purified yeast NMT): indistinguishable; hydrophobicity compared with myristic acid, in words [1]: decreases its hydrophobicity; also recorded: significantly different |
| 62 | 64 | 1.8 | 12 | CCOCCCCCCCCCCC(=O)O [B, 11-(Ethoxy)undecanoic acid] | – |
| 232 | 163 | 6.9 | 12 to 13 | COCCCCCCCCCCC(=O)O [D, 11-(Methoxy)undecanoic acid] | – |
| 245 | 250 | 1.5 | 18 | CCCSCCCCCCCCCC(=O)O [G, 10-(Propylthio)decanoic acid] | – |
| 200 | 320 | 6.5 | 9 | C#CCOCCCCCCCCCC(=O)O [J, 10-(2-Propynoxy)decanoic acid] | – |
